From PMC7305236, “The atypical chemokine receptor ACKR3/CXCR7 is a broad-spectrum scavenger for opioid peptides” (Nature Communications, 2020)
Read-outs that look alike come from different tables or passages of the source. Starred links: 1 amine or outer side, 2 acyl side, 3 side chain; linkers in the order of their positions; H or OH if unused. Non-standard residues stand in square brackets, D forms with d. Residues, ends and D or L forms follow the SMILES beside them. X1 = N[C@@H](Cc1ccccc1)CN(CC(=O)[*:2])[*:1]

Assays:
Experiment in all cases: Figure S2a opioid peptide screen on chemokine receptors
Set-up in all cases: dose or concentration left out as unconfirmed
CXCR1 = target: T1, CXCR1 (Homo sapiens, UniProt P25024); format: cell-based
T1 construct: expressed in transfected cells
T1 sequence (P25024 1-350): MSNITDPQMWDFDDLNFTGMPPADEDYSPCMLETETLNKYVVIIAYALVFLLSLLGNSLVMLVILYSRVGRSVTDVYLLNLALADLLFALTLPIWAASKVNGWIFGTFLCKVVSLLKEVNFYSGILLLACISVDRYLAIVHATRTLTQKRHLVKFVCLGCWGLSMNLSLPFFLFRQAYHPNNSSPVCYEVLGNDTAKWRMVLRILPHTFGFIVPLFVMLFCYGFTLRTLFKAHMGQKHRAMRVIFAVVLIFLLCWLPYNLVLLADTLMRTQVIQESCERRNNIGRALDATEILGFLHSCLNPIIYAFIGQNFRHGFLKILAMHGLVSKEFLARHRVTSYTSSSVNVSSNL

CCR3 = target: T2, CCR3 (Homo sapiens, UniProt P51677); details: read-out: CCR3 activity, ctrl+ = 100, Figure S2a
T2 sequence (P51677 1-355): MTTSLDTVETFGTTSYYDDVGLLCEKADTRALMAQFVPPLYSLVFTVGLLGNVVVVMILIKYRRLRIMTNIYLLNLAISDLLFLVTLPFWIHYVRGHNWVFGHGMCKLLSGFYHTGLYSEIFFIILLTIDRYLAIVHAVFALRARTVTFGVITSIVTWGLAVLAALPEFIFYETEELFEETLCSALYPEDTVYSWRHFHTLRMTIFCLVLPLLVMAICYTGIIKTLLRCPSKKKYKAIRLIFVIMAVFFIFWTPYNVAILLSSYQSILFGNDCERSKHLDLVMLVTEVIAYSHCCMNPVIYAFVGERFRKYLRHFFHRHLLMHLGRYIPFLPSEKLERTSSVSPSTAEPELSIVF

CCR10 = target: T3, CCR10 (Homo sapiens, UniProt P46092); format: cell-based
T3 construct: expressed in transfected cells
T3 sequence (P46092 1-362): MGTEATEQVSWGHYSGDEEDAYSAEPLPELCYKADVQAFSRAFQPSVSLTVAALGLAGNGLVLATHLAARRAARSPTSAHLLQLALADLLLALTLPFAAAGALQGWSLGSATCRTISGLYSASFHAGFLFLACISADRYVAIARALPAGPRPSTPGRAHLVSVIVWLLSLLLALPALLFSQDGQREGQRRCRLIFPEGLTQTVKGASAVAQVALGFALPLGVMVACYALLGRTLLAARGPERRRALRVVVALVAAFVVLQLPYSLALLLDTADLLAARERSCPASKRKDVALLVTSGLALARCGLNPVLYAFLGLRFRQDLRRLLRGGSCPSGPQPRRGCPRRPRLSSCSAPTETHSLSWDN

XCR1 = target: T4, XCR1 (Homo sapiens, UniProt P46094); format: cell-based
T4 construct: expressed in transfected cells
T4 sequence (P46094 1-333): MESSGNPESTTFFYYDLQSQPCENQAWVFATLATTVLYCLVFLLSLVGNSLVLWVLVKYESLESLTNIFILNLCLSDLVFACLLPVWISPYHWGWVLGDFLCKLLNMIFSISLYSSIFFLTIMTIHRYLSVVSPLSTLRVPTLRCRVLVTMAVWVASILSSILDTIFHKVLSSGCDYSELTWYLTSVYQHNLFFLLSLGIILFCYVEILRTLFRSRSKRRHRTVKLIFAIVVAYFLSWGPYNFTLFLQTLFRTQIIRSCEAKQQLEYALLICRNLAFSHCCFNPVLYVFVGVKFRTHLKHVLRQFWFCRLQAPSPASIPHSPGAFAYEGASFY

[1] = replicate 1, read-out: CXCR1 activity, ctrl+ = 100
[2] = replicate 2, read-out: CXCR1 activity, ctrl+ = 100
[3] = replicate 1, read-out: CCR10 activity, ctrl+ = 100
[4] = replicate 2, read-out: CCR10 activity, ctrl+ = 100
[5] = replicate 1, read-out: XCR1 activity, ctrl+ = 100
[6] = replicate 2, read-out: XCR1 activity, ctrl+ = 100
[7] = replicate 3, read-out: CXCR1 activity, ctrl+ = 100
[8] = replicate 3, read-out: CCR10 activity, ctrl+ = 100
[9] = replicate 3, read-out: XCR1 activity, ctrl+ = 100

SMILES	activation (CXCR1; [1])	activation (CXCR1; [2])	activation (CCR3; replicate 1)	activation (CCR3; replicate 2)	activation (CCR10; [3])	activation (CCR10; [4])	activation (XCR1; [5])	activation (XCR1; [6])	activation (CXCR1; [7])	activation (CCR3; replicate 3)	activation (CCR10; [8])	activation (XCR1; [9])
NC(=O)[C@H](Cc1ccccc1)NC(=O)[C@H](Cc1c[nH]c2ccccc12)NC(=O)[C@@H]1CCCN1C(=O)[C@@H](N)Cc1ccc(O)cc1 [Endomorphin-1]	0.195%	-0.597%	18.4%	4.97%	-5.29%	7.53%	4.23%	6.11%				
C[C@H](NC(=O)CNC(=O)[C@@H](NC(=O)[C@H](Cc1ccccc1)NC(=O)CNC(=O)CNC[C@@H](N)Cc1ccccc1)[C@@H](C)O)C(=O)N[C@@H](CCCNC(=N)N)C(=O)N[C@@H](CCCCN)C(=O)N[C@@H](CO)C(=O)N[C@@H](C)C(=O)N[C@@H](CCCNC(=N)N)C(=O)N[C@@H](CCCCN)C(N)=O [FG Nociceptin 1-13] (H-[X1]GFTGARKSARK-NH2)	-0.231%	1.41%	13%	6.22%	-1.11%	-2.39%	0.7%	1.1%	1.07%	14.1%	7.95%	16.8%
CC(C)C[C@H](NC(=O)[C@H](CCCCN)NC(=O)[C@H](CCCN=C(N)N)NC(=O)[C@H](C)NC(=O)[C@H](CO)NC(=O)[C@H](CCCCN)NC(=O)[C@H](CCCN=C(N)N)NC(=O)[C@H](C)NC(=O)CNC(=O)[C@@H](NC(=O)[C@H](Cc1ccccc1)NC(=O)CNC(=O)CNC(=O)[C@@H](N)Cc1ccccc1)[C@@H](C)O)C(=O)N[C@@H](C)C(=O)N[C@@H](CC(N)=O)C(=O)N[C@@H](CCC(N)=O)C(=O)O [Nociceptin]	-0.193%	0.511%	8.85%	-14.3%	-2.56%	-4.7%	1.08%	-2.39%				
CC[C@H](C)[C@H](NC(=O)[C@H](CCCNC(=N)N)NC(=O)[C@H](CCCNC(=N)N)NC(=O)[C@H](CC(C)C)NC(=O)[C@H](Cc1ccccc1)NC(=O)CNC(=O)CN)C(=O)N[C@@H](CCCNC(=N)N)C(=O)N1CCC[C@H]1C(=O)N[C@@H](CCCCN)C(=O)N[C@@H](CC(C)C)C(=O)N[C@@H](CCCCN)C(=O)N[C@@H](Cc1c[nH]c2ccccc12)C(=O)N[C@@H](CC(=O)O)C(=O)N[C@@H](CC(N)=O)C(=O)N[C@@H](CCC(N)=O)C(=O)O [Dynorphin 2-17]	0.572%	0.136%	12.7%	-19.1%	0.214%	-5.55%	3.87%	-3.46%				
CC[C@H](C)[C@H](NC(=O)[C@H](CCCNC(=N)N)NC(=O)[C@H](CCCNC(=N)N)NC(=O)[C@H](CC(C)C)NC(=O)[C@H](Cc1ccccc1)NC(=O)CNC(=O)CNC(=O)[C@@H](N)Cc1ccc(O)cc1)C(=O)N[C@@H](CCCNC(=N)N)C(=O)N1CCC[C@H]1C(=O)N[C@@H](CCCCN)C(=O)N[C@@H](CC(C)C)C(=O)N[C@@H](CCCCN)C(=O)O [Dynorphin 1-13]	0.218%	-1.21%	5.05%	-11.6%	-2.25%	-4.52%	-1.76%	-0.309%				
CC[C@H](C)[C@H](NC(=O)[C@H](CCCNC(=N)N)NC(=O)[C@H](CCCNC(=N)N)NC(=O)[C@H](CC(C)C)NC(=O)[C@H](Cc1ccccc1)NC(=O)CNC(=O)CNC(=O)[C@@H](N)Cc1ccc(O)cc1)C(=O)N[C@@H](CCCNC(=N)N)C(=O)N1CCC[C@H]1C(=O)N[C@@H](CCCCN)C(=O)N[C@@H](CC(C)C)C(=O)N[C@@H](CCCCN)C(=O)N[C@@H](Cc1c[nH]c2ccccc12)C(=O)N[C@@H](CC(=O)O)C(=O)N[C@@H](CC(N)=O)C(=O)N[C@@H](CCC(N)=O)C(=O)O [Dynorphin A]	0.562%	0.211%	33.4%	-17%	2.9%	-7.47%	4.69%	7.1%	0.227%	43.5%	4.56%	11%
C[C@H](NC(=O)CNC(=O)[C@@H](NC(=O)[C@H](Cc1ccccc1)NC(=O)CNC(=O)CNC(=O)[C@@H](N)Cc1ccccc1)[C@@H](C)O)C(=O)N[C@@H](CCCNC(=N)N)C(=O)N[C@@H](CCCCN)C(=O)N[C@@H](CO)C(=O)N[C@@H](C)C(=O)N[C@@H](CCCNC(=N)N)C(=O)N[C@@H](CCCCN)C(N)=O [Nociceptin 1-13]	0.237%	1.23%	6.49%	6.25%	2.26%	-5.16%	2.91%	3.06%	-0.725%	14.8%	3.57%	4.45%
CSCC[C@H](NC(=O)[C@H](Cc1ccccc1)NC(=O)CNC(=O)CNC(=O)[C@@H](N)Cc1ccc(O)cc1)C(=O)N[C@@H](CCCNC(=N)N)C(=O)N[C@@H](CCCNC(=N)N)C(=O)N[C@H](C(N)=O)C(C)C [Adrenorphin]	0.451%	0.739%	10.9%	-10.8%	1.18%	-7.52%	-2.07%	2.59%	-0.427%	23.6%	-2%	12.1%
CSCC[C@H](NC(=O)[C@H](Cc1ccccc1)NC(=O)CNC(=O)CNC(=O)[C@@H](N)Cc1ccc(O)cc1)C(=O)N[C@@H](CCCNC(=N)N)C(=O)N[C@@H](CCCNC(=N)N)C(=O)N[C@H](C(=O)NCC(=O)N[C@@H](CCCNC(=N)N)C(=O)N1CCC[C@H]1C(=O)N[C@@H](CCC(=O)O)C(=O)N[C@@H](Cc1c[nH]c2ccccc12)C(=O)N[C@@H](Cc1c[nH]c2ccccc12)C(=O)N[C@@H](CCSC)C(=O)N[C@@H](CC(=O)O)C(=O)N[C@@H](Cc1ccc(O)cc1)C(=O)N[C@@H](CCC(N)=O)C(=O)N[C@@H](CCCCN)C(=O)N[C@@H](CCCNC(=N)N)C(=O)N[C@@H](Cc1ccc(O)cc1)C(=O)NCC(=O)O)C(C)C [BAM22]	0.211%	0.0913%	5.68%	-4.83%	-2.23%	-4.92%	-2.25%	-4.24%	-0.539%	17.9%	-3.25%	8.51%
